In the NIST ThermoML archive (doi:10.1021/je049609w):

Key:
[1] = xn = mol fraction of the nth substance listed; conditions: 101 kPa, Liquid
[2] = refractive index (Na D-line) (dimensionless); xn = mol fraction of the nth substance listed; conditions: 101 kPa, Liquid

C1COCCO1 [1,4-dioxane] + ClC=C(Cl)Cl
x1 = 1
Conditions	mass density, 298.15 K [kg/m3]	mass density, 303.15 K [kg/m3]	mass density, 308.15 K [kg/m3]	refractive index, 298.15 K	refractive index, 303.15 K	refractive index, 308.15 K	speed of sound, 298.15 K [m/s]	viscosity, 298.15 K [mPa·s]	viscosity, 303.15 K [mPa·s]	viscosity, 308.15 K [mPa·s]
[1]	1028.6	1022.9	1017.2	–	–	–	1345	1.196	1.102	1.008
[2]	–	–	–	1.4203	1.4164	1.4145	–	–	–	–

C1COCCO1 [1,4-dioxane] + CC(=O)N(C)C
x1 = 1
Conditions	mass density, 298.15 K [kg/m3]	mass density, 303.15 K [kg/m3]	mass density, 308.15 K [kg/m3]	refractive index, 298.15 K	refractive index, 303.15 K	refractive index, 308.15 K	speed of sound, 298.15 K [m/s]	viscosity, 298.15 K [mPa·s]	viscosity, 303.15 K [mPa·s]	viscosity, 308.15 K [mPa·s]
[1]	1028.6	1022.9	1017.2	–	–	–	1345	1.196	1.095	1.008
[2]	–	–	–	1.4203	1.4164	1.4145	–	–	–	–

CC(=O)N(C)C [N,N-dimethylethanamide] + C1COCCO1
Conditions	mass density, 298.15 K [kg/m3]	mass density, 303.15 K [kg/m3]	mass density, 308.15 K [kg/m3]	refractive index, 298.15 K	refractive index, 303.15 K	refractive index, 308.15 K	speed of sound, 298.15 K [m/s]	viscosity, 298.15 K [mPa·s]	viscosity, 303.15 K [mPa·s]	viscosity, 308.15 K [mPa·s]
[1], x2 = 0	946.8	942.1	937.5	–	–	–	1458	1.261	1.154	1.047
[1], x2 = 0.1121	954.8	950.1	945.4	–	–	–	1447	1.255	1.149	1.043
[1], x2 = 0.2162	962.4	957.6	952.9	–	–	–	1436	1.248	1.144	1.039
[1], x2 = 0.3203	970	965.2	960.3	–	–	–	1424	1.242	1.138	1.035
[1], x2 = 0.4222	977.9	972.9	968	–	–	–	1413	1.235	1.133	1.031
[1], x2 = 0.5242	985.9	980.9	975.9	–	–	–	1401	1.228	1.128	1.027
[1], x2 = 0.6219	993.9	988.8	983.6	–	–	–	1390	1.222	1.123	1.023
[1], x2 = 0.7198	1002.1	996.8	991.6	–	–	–	1379	1.215	1.117	1.019
[1], x2 = 0.8157	1010.5	1005.3	999.8	–	–	–	1367	1.209	1.105	1.016
[1], x2 = 0.9116	1019.2	1013.7	1008.2	–	–	–	1356	1.202	1.099	1.012
[2], x2 = 0	–	–	–	1.4363	1.4342	1.432	–	–	–	–
[2], x2 = 0.1121	–	–	–	1.4346	1.4324	1.4302	–	–	–	–
[2], x2 = 0.2162	–	–	–	1.4328	1.4306	1.4284	–	–	–	–
[2], x2 = 0.3203	–	–	–	1.431	1.4287	1.4264	–	–	–	–
[2], x2 = 0.4222	–	–	–	1.4293	1.4269	1.4246	–	–	–	–
[2], x2 = 0.5242	–	–	–	1.4275	1.4252	1.4228	–	–	–	–
[2], x2 = 0.6219	–	–	–	1.4259	1.4234	1.421	–	–	–	–
[2], x2 = 0.7198	–	–	–	1.4242	1.4226	1.4191	–	–	–	–
[2], x2 = 0.8157	–	–	–	1.4226	1.421	1.4174	–	–	–	–
[2], x2 = 0.9116	–	–	–	1.421	1.4195	1.4157	–	–	–	–
